Reference: PMC10426190 (Breast Cancer Research : BCR, 2023)

System: E2-induced (ER target) genes in MCF7
Experiment: Gene expression analysis by RNA-sequencing in MCF7 with E2 stimulation
Type: cell-based, human
Settings: MCF7; 1 nM E2 ± 1 μM compound, 24 h
Description: MCF7 were cultured in hormone deprivation media (with 10% charcoal-stripped FBS) for at least 3 days before assay. Trypsinized cells were seeded in a 12-well plate, stimulated with 1 nM β-estradiol (E2), and treated with/without 1 μM compounds for 24 h. Total RNA was extracted using the TRIzol reagent according to the manufacturer’s protocol. RNA purity and quantification were evaluated using the NanoDrop 2000 spectrophotometer (Thermo Scientific, USA). RNA integrity was assessed using the Agilent 2100 Bioanalyzer (Agilent Technologies, Santa Clara, CA, USA). Then the libraries were constructed using TruSeq Stranded mRNA LT Sample Prep Kit (Illumina, San Diego, CA, USA) according to the manufacturer’s instructions. The transcriptome sequencing and analysis were conducted by OE Biotech Co., Ltd. (Shanghai, China). The libraries were sequenced on an Illumina HiSeq X Ten platform and 150 bp paired-end reads were generated. […] Raw data (raw reads) of FASTq format were firstly processed using Trimmomatic and the low-quality reads were removed to obtain the clean reads. […] The clean reads were mapped to the human genome (GRCh38) using HISAT2 [27]. FPKM [28] of each gene was calculated using Cufflinks, and the read counts of each gene were obtained by HTSeqcount. Differential expression analysis was performed using the DESeq (2012) R package.
MCF7 with hormone-deprived pre-treatment were administrated ER ligands or not present with 1 nM E2 stimulation for 24 h incubation in a 12-well plate. Total mRNA was isolated from treated cells and sequenced on an Illumina HiSeq X Ten platform. FPKM of each gene was calculated using Cufflinks and Differential expression genes analysis by using the DESeq (2012) R package. […] T47D EFM-19 and HCC1500 cells were grown in RPMI media supplemented with 10% charcoal-stripped FBS for 14 days and then treated with ER antagonist (1 μM) or DMSO in the presence E2 (1nM) stimulation for 24 h before RNA isolation and gene expression analysis as described in methods. […] The uteruses were harvested 24 h after the final doses and stained by toluidine blue. Endometrial height was assessed from the basement membrane to the luminal border (scale bar in green lines: 200 μm), Arrows indicate the uterine epithelium (e).

For `CC/C(=C(\c1ccc(O)cc1)c1ccc(OCCN(C)C)cc1)c1ccccc1` [4-OH-tamoxifen], which KIF18B expression is on record?
Its KIF18B expression is 3.84 FPKM.

And the KIFC1 expression?
The KIFC1 expression was 15.12 FPKM.

What about the KLK11 expression of the same compound?
The KLK11 expression was 4.66 FPKM.

What about the KNL1 expression of the same compound?
Its KNL1 expression is 4.05 FPKM.

And the KNTC1 expression?
The KNTC1 expression was 6.86 FPKM.

And the LHX2 expression?
The LHX2 expression was 1.62 FPKM.

And the LIG1 expression?
The LIG1 expression was 23.58 FPKM.

What about the LMNB1 expression of the same compound?
The LMNB1 expression was 53.86 FPKM.

And the MAD2L1 expression?
The MAD2L1 expression was 7.76 FPKM.

And the MCM2 expression?
Its MCM2 expression is 31.78 FPKM.

And the MCM3 expression?
The MCM3 expression was 34.54 FPKM.

And the MCM4 expression?
Its MCM4 expression is 49.01 FPKM.

What about the MCM5 expression of the same compound?
The MCM5 expression was 13.27 FPKM.

And the MCM6 expression?
Its MCM6 expression is 24.55 FPKM.

And the MCM7 expression?
The MCM7 expression was 84.30 FPKM.

And the MCM10 expression?
Its MCM10 expression is 3.64 FPKM.

What about the MELK expression of the same compound?
Its MELK expression is 11.34 FPKM.

What about the MKI67 expression of the same compound?
Its MKI67 expression is 21.80 FPKM.

And the MYB expression?
The MYB expression was 5.81 FPKM.

What about the MYBL1 expression of the same compound?
The MYBL1 expression was 1.32 FPKM.

What about the MYBL2 expression of the same compound?
The MYBL2 expression was 46.03 FPKM.

What about the NCAPG2 expression of the same compound?
The NCAPG2 expression was 19.25 FPKM.

What about the NCAPG expression of the same compound?
Its NCAPG expression is 7.03 FPKM.

And the NPY1R expression?
The NPY1R expression was 8.44 FPKM.

What about the ORC1 expression of the same compound?
The ORC1 expression was 3.13 FPKM.

What about the ORC6 expression of the same compound?
Its ORC6 expression is 7.62 FPKM.

What about the PAQR4 expression of the same compound?
Its PAQR4 expression is 12.98 FPKM.

What about the PBK expression of the same compound?
The PBK expression was 16.47 FPKM.

And the PCLAF expression?
The PCLAF expression was 33.01 FPKM.

And the PCNA expression?
Its PCNA expression is 59.31 FPKM.

And the PDZK1 expression?
The PDZK1 expression was 3.59 FPKM.

What about the PGR expression of the same compound?
The PGR expression was 1.93 FPKM.

And the PKIB expression?
The PKIB expression was 26.05 FPKM.

And the PKMYT1 expression?
The PKMYT1 expression was 12.25 FPKM.

And the POLA1 expression?
The POLA1 expression was 3.09 FPKM.

What about the POLA2 expression of the same compound?
The POLA2 expression was 5.57 FPKM.

What about the POLD1 expression of the same compound?
Its POLD1 expression is 11.86 FPKM.

And the POLE2 expression?
Its POLE2 expression is 2.61 FPKM.

And the POLE expression?
The POLE expression was 12.83 FPKM.

What about the POLQ expression of the same compound?
Its POLQ expression is 2.74 FPKM.

And the PRIM1 expression?
The PRIM1 expression was 10.94 FPKM.

And the PRSS23 expression?
Its PRSS23 expression is 68.31 FPKM.

And the RAB31 expression?
Its RAB31 expression is 11.89 FPKM.

And the RAD51AP1 expression?
Its RAD51AP1 expression is 5.44 FPKM.

And the RAD51 expression?
Its RAD51 expression is 4.02 FPKM.

What about the RAD54L expression of the same compound?
The RAD54L expression was 4.39 FPKM.

And the RAMP3 expression?
The RAMP3 expression was 3.44 FPKM.

And the RAPGEFL1 expression?
The RAPGEFL1 expression was 6.63 FPKM.

And the RBL1 expression?
Its RBL1 expression is 2.35 FPKM.

What about the RECQL4 expression of the same compound?
Its RECQL4 expression is 13.74 FPKM.

What about the RERG expression of the same compound?
The RERG expression was 3.48 FPKM.

What about the RET expression of the same compound?
The RET expression was 4.49 FPKM.

What about the RFC2 expression of the same compound?
Its RFC2 expression is 18.64 FPKM.

What about the RFC3 expression of the same compound?
Its RFC3 expression is 4.62 FPKM.

And the RFC4 expression?
The RFC4 expression was 14.31 FPKM.

What about the RNASEH2A expression of the same compound?
The RNASEH2A expression was 30.81 FPKM.

What about the RRM1 expression of the same compound?
Its RRM1 expression is 20.41 FPKM.

And the RRM2 expression?
Its RRM2 expression is 33.29 FPKM.

And the RUBCNL expression?
The RUBCNL expression was 1.01 FPKM.

And the SDK2 expression?
The SDK2 expression was 0.95 FPKM.

What about the SFXN2 expression of the same compound?
Its SFXN2 expression is 8.23 FPKM.

And the SHCBP1 expression?
The SHCBP1 expression was 3.43 FPKM.

What about the SKA3 expression of the same compound?
The SKA3 expression was 5.48 FPKM.

And the SLC6A14 expression?
Its SLC6A14 expression is 24.37 FPKM.

And the SMC2 expression?
Its SMC2 expression is 7.20 FPKM.

What about the SPC24 expression of the same compound?
Its SPC24 expression is 7.06 FPKM.

What about the SPC25 expression of the same compound?
The SPC25 expression was 7.65 FPKM.

And the STC2 expression?
The STC2 expression was 84.89 FPKM.

What about the TACC3 expression of the same compound?
The TACC3 expression was 21.35 FPKM.

And the TCF19 expression?
The TCF19 expression was 8.96 FPKM.

What about the TCOF1 expression of the same compound?
Its TCOF1 expression is 10.86 FPKM.

What about the TGM2 expression of the same compound?
Its TGM2 expression is 3.69 FPKM.

And the TICRR expression?
Its TICRR expression is 4.37 FPKM.

What about the TK1 expression of the same compound?
Its TK1 expression is 57.95 FPKM.

What about the TMEM26 expression of the same compound?
Its TMEM26 expression is 2.14 FPKM.

What about the TMEM164 expression of the same compound?
The TMEM164 expression was 10.65 FPKM.

And the TONSL expression?
Its TONSL expression is 9.87 FPKM.

What about the TOP2A expression of the same compound?
The TOP2A expression was 30.91 FPKM.

What about the TP73 expression of the same compound?
Its TP73 expression is 1.32 FPKM.

What about the TRIP13 expression of the same compound?
The TRIP13 expression was 8.37 FPKM.

What about the TUBA1B expression of the same compound?
Its TUBA1B expression is 555.45 FPKM.

And the TUBB expression?
The TUBB expression was 291.22 FPKM.

And the TYMS expression?
Its TYMS expression is 31.45 FPKM.

And the UBE2C expression?
Its UBE2C expression is 31.96 FPKM.

What about the UBE2T expression of the same compound?
Its UBE2T expression is 41.94 FPKM.

What about the UHRF1 expression of the same compound?
The UHRF1 expression was 9.20 FPKM.

What about the UNG expression of the same compound?
Its UNG expression is 32.49 FPKM.

And the WDHD1 expression?
The WDHD1 expression was 4.95 FPKM.

And the WDR62 expression?
The WDR62 expression was 5.88 FPKM.

What about the WDR76 expression of the same compound?
Its WDR76 expression is 1.87 FPKM.

What about the XRCC2 expression of the same compound?
The XRCC2 expression was 3.37 FPKM.

And the XRCC3 expression?
The XRCC3 expression was 8.89 FPKM.

What about the ZGRF1 expression of the same compound?
Its ZGRF1 expression is 1.82 FPKM.

And the ZNF367 expression?
Its ZNF367 expression is 5.84 FPKM.
